Results as given in patent US20230190743A1, “TREATMENT WITH ILEAL BILE ACID TRANSPORTER (IBAT) INHIBITORS FOR INCREASED EVENT-FREE SURVIVAL (EFS)” (Mirum Pharmaceuticals, Inc., priority 2021, published 2023).
“Also recorded” adds a separate entry of the source.

What was measured:
[1] = tested on: patients with PFIC due to BSEP deficiency; assay: Longitudinal serum bile acid profiling by UHPLC-MS/MS in INDIGO patients; format: in vivo, human
Protocol: Total and individual serum BAs (sBA) including the major sub-species of TCA, TUDCA, TCDCA, TDCA, TLCA, GCA, GUDCA, GCDCA, GDCA, GLCA, CA, UDCA, CDCA, DCA, LCA and 7α-hydroxy-4-cholesten-3-one (sterol-C4), a surrogate marker for BA synthesis, were measured using a validated ultraperformance liquid chromatography coupled with tandem mass spectrometry (UHPLC-MS/MS) assay. The internal standards, a cocktail of deuterium labeled standards were added to serum, calibrators and QC samples. sBA were extracted and separated on a Kinetex C18 (2.6 μm, 100×3.0 mm) column (Phenomenex, Torrance, Calif.) with gradient elution. Quantification of individual sBA was achieved by multiple reaction monitoring (MRM) of selected transitions. Total C24 bile acid concentrations were calculated from the sum of individual species. These assays were applied to the analysis of serum from 19 patients with genetically confirmed PFIC due to BSEP deficiency (open-label phase 2 INDIGO trial; NCT02057718) treated with MRX. Changes in the composition of sBA associated with pruritus improvement measured with the Itch Reported Outcome Observer (ItchRO[Obs]) score were monitored at intervals over 72 weeks, with pruritus responders, defined as >1 scale reduction, compared with nonresponders. Linear mixed model framework was also used to model longitudinal profiles of sBA and pruritus reduction over time.

[2] = tested on: children with FIC1 or BSEP deficiencies (PFIC); assay: INDIGO open-label Phase 2 long-term efficacy and safety study; format: in vivo, human; settings: for tolerability: up to 5 years of treatment
Protocol: INDIGO investigated the effect of maralixibat on sBA levels and cholestatic pruritus, alongside other biochemical markers of cholestasis and liver disease in these patients.
The study was conducted at 12 hospitals in France, Poland, the United Kingdom, and the United States. Screening evaluations were performed in the 6 weeks prior to the start of the study. In patients without documented ATP8B1 or ABCB11 mutations, genetic testing was performed.
The primary efficacy endpoint was the change in mean fasting sBA levels from Baseline to Week 13 in the overall intent-to-treat (ITT) study population. The key secondary efficacy endpoint was the mean change in observer-rated pruritus (Itch Reported Outcome Observer [ItchRO(Obs)]) score from Baseline to Week 13 in the overall ITT study population. Other secondary efficacy endpoints included the mean changes from Baseline to Week 13 in total cholesterol, low- and high-density lipoprotein cholesterol (LDL-C and HDL-C, respectively), and serum triglyceride levels in the overall ITT study population. Additional efficacy and safety analyses included the change from Baseline to Week 72 and Week 240 in sBA levels, patient height and weight, bile acid synthesis (as determined by the ratio between sBA levels and 7α-hydroxy-4-cholesten-3-one [7α-C4] levels), quality of life as measured by the Pediatric Quality of Life Inventory™ (PedsQL™), mean changes in ALT, aspartate aminotransferase (AST), and bilirubin (total and direct), lipid profiles, and FSV levels. The ItchRO assessment was not performed at Week 72, so data from Week 48 were used instead.
Efficacy and safety analyses were performed for the overall ITT study population as well as the two PFIC subtypes (FIC1 deficiency and BSEP deficiency) separately. Patients with BSEP deficiency were analyzed overall and according to their mutation type (t-BSEP and nt-BSEP). Long-term changes in pruritus scores, patient height, blood lipids, liver parameters, and transplant-free survival were assessed according to a responder analysis.
Quantitative analysis of the 15 major sBAs and serum 7α-C4 was performed at a single site (Cincinnati) by stable isotope dilution electrospray ionization liquid chromatography-mass spectrometry (LCMS/MS) using a fully validated proprietary assay that complies with College of American Pathologists/Clinical Laboratory Improvement Amendments certification. The study protocol defined a composite response to maralixibat as achieving a ≥1.0-point reduction in ItchRO(Obs) score and a ≥70% reduction or normalization of sBA levels from Baseline. […] Pruritus was measured using the ItchRO tool, which was specifically developed and validated to evaluate pruritus in children with cholestatic liver diseases, based on a five-point scale where 0=‘none’ and 4=‘very severe’. […] The ItchRO measure was completed twice daily via an eDiary. Parents/caregivers completed the ItchRO(Obs) assessment for all patients. Additionally, children ≥9 years of age completed the ItchRO(Pt) assessment. Levels of ALT, AST, bilirubin (total and direct), lipids, and FSV were assessed using standard clinical laboratory techniques. Quality of life was assessed using the PedsQL™ questionnaire. […] The occurrence of treatment-emergent adverse events (TEAEs) and serious adverse events (SAEs) was assessed throughout the study.

CCCCC1(CCCC)CS(=O)(=O)c2ccc(N(C)C)cc2[C@@H](c2ccc(OCc3ccc(C[N+]45CCN(CC4)CC5)cc3)cc2)[C@H]1O [maralixibat]
reduction from baseline in total sBA, pruritus responders vs nonresponders ([1]; longitudinal data, p<0.05, result in words): significantly greater
patients who met the pruritus-response criteria (>1 scale reduction ItchRO[Obs]) ([1]; of the 19 patients, over 72 weeks): 11 patients
proportion of unconjugated BA ([1]; pruritus nonresponders, p=0.09): 0.61±0.24%
proportion of unconjugated BA ([1]; pruritus responders): 9.84±4.87%
sBA responders who achieved response during once-daily dosing ([2]; 266 μg/kg once daily): six and Six
sBA responders who achieved response after switching to twice-daily dosing ([2]; 266 μg/kg twice daily, after Week 97): one
TEAE cough, patients ([2]; 18 patients): 55%
TEAE diarrhea, patients ([2]; 19 patients): 58%
TEAE pyrexia, patients ([2]; 20 patients): 61%
TEAEs mild or moderate in severity ([2]; 33 patients): 58%
patients who experienced ≥1 TEAE ([2]; 33 patients, result in words): All patients
sBA non-responders with transplant-free survival after >5 years ([2]; P<0.001 vs sBA responders, result in words): none
mean reduction from Baseline in ItchRO(Obs) score ([2]; Week 13, ITT population, 95% CI −1.04, −0.53, P<0.001): −0.8
mean reduction from Baseline in ItchRO(Pt) score ([2]; Week 13, ITT population, 95% CI −1.55, −0.47, P=0.002): −1.0
patients with serious TEAEs ([2]; during the study): 15 patients
patients with FIC1 deficiency who met the sBA responder criteria ([2]; eight patients with FIC1 deficiency, result in words): No patient
SAEs abdominal pain, diarrhea, and gastroenteritis ([2]; in vivo): two
patients who discontinued due to adverse events or liver transplantation following disease progression ([2]; in vivo): 12 patients
sBA responders listed for liver transplantation who were removed from the transplant waiting list ([2]; listed for refractory pruritus at the beginning of the study): Two
patients with nt-BSEP who achieved sBA response ([2]; n=19 nt-BSEP): 37%
patients with nt-BSEP with rapid and sustained reductions in sBA levels ([2]; of 19 patients with nt-BSEP): 6 patients
patients with nt-BSEP who achieved sBA response (reduction >75% from baseline or <102.0 μmol/L) ([2]; of 19 with nt-BSEP, during the study): seven
patients who discontinued maralixibat due to an adverse event ([2]; one with FIC1 deficiency, seven with BSEP deficiency): Eight
change in sBA levels from Baseline to Week 13 ([2]; overall ITT population (33 patients), 95% CI −74.830, 41.070, P=0.884): -16.9 µmol/L
mean levels of sBA, ItchRO(Obs) scores, and PedsQL scores versus Baseline ([2]; patients with FIC1 deficiency, long-term, result in words): did not change significantly
change in mean level of serum 7α-C4 ([2]; patients with nt-BSEP, Week 240, 95% CI 4.07, 48.50, P=0.027): +26.29 ng/mL
deaths during the study ([2]; result in words): No deaths
effect on levels of FSV or liver transaminases ([2]; result in words): did not have any significant detrimental effects
sBA non-responders with clinically meaningful (>1.0 points) reduction in ItchRO(Obs) ([2]; sBA non-responders): Three
change in weight z-score (decrease) ([2]; sBA non-responders, Week 72, 95% CI −0.606, −0.012): −0.30
time to decrease of sBA levels upon treatment initiation ([2]; sBA responders): 2-4 Weeks
change from Baseline in mean height z-score ([2]; sBA responders, Week 72, 95% CI 0.369, 0.976, P=0.0016): 0.67
change from Baseline in mean weight z-score ([2]; sBA responders, Week 72, 95% CI −0.001, 0.603, P=0.051): 0.30
serum ALT, AST, and bilirubin levels ([2]; sBA responders, if elevated at Baseline, result in words): improvements and/or normalization
change in mean PedsQL score from Baseline to Week 240 ([2]; sBA responders, 95% CI 6.7, 40.6, P=0.014): 24 points
7α-C4/sBA ratio compared with Baseline ([2]; sBA responders, result in words): generally increased; also recorded: increased rapidly
patients with t-BSEP who met the sBA responder criteria ([2]; six patients with t-BSEP, result in words): No patients and No patient and none
tolerability ([2]; result in words): generally safe and well tolerated
tolerability ([2]; result in words, listed as Maralixibat): generally well-tolerated; also recorded: generally well tolerated
